Measured values taken from patent US6534524B1, “Indazole compounds and pharmaceutical compositions for inhibiting protein kinases, and methods for their use” (Agouron Pharmaceuticals, Inc., priority 1999, dated 2003).

System: human umbilical vein endothelial cells (HUVEC)
Experiment: HUVEC proliferation assay (VEGF-stimulated, MTT)
Format: cell-based
Conditions: Library III; HUVEC proliferation; nominal concentration of 0.5 nM; crude reaction mixtures

Structure (SMILES) | % inhibition [%]
O=C(Nc1cc(O)[nH]n1)c1ccccc1Sc1ccc2c(/C=C/c3ccccn3)n[nH]c2c1 | −17
O=C(NC[C@H](O)c1ccccc1)c1ccccc1Sc1ccc2c(/C=C/c3ccccn3)n[nH]c2c1 | −34
O=C(NCC1COc2ccccc2O1)c1ccccc1Sc1ccc2c(/C=C/c3ccccn3)n[nH]c2c1 (stereo not shown) | −13
COc1ccc(CNC(=O)c2ccccc2Sc2ccc3c(/C=C/c4ccccn4)n[nH]c3c2)c(OC)c1 | 13
O=C(Nc1ccc(Cl)cc1CO)c1ccccc1Sc1ccc2c(/C=C/c3ccccn3)n[nH]c2c1 | 48
O=C(NC[C@@H]1CCCO1)c1ccccc1Sc1ccc2c(/C=C/c3ccccn3)n[nH]c2c1 | −11
COc1ccc(NC(=O)c2ccccc2Sc2ccc3c(/C=C/c4ccccn4)n[nH]c3c2)cc1OC | 1
COc1ccc(Cl)cc1NC(=O)c1ccccc1Sc1ccc2c(/C=C/c3ccccn3)n[nH]c2c1 | −4
COc1ccc(CCNC(=O)c2ccccc2Sc2ccc3c(/C=C/c4ccccn4)n[nH]c3c2)cc1 | 10
O=C(Nc1cnccn1)c1ccccc1Sc1ccc2c(/C=C/c3ccccn3)n[nH]c2c1 | −1
O=C(Nc1cccc2ccccc12)c1ccccc1Sc1ccc2c(/C=C/c3ccccn3)n[nH]c2c1 | −33
O=C(Nc1ccc(O)c(Cl)c1)c1ccccc1Sc1ccc2c(/C=C/c3ccccn3)n[nH]c2c1 | −19
CCCCOc1ccc(NC(=O)c2ccccc2Sc2ccc3c(/C=C/c4ccccn4)n[nH]c3c2)cc1 | −6
COc1ccc(NC(=O)c2ccccc2Sc2ccc3c(/C=C/c4ccccn4)n[nH]c3c2)cc1Cl | 2
O=C(Nc1ccc(Cl)nn1)c1ccccc1Sc1ccc2c(/C=C/c3ccccn3)n[nH]c2c1 | −21
Cc1ccc(CNC(=O)c2ccccc2Sc2ccc3c(/C=C/c4ccccn4)n[nH]c3c2)cc1Cl | −16
CCOC(=O)c1ccc(NC(=O)c2ccccc2Sc2ccc3c(/C=C/c4ccccn4)n[nH]c3c2)cc1 | −25
CCN(CC)c1ccc(NC(=O)c2ccccc2Sc2ccc3c(/C=C/c4ccccn4)n[nH]c3c2)cc1 | −9
Cc1ccc(CO)cc1NC(=O)c1ccccc1Sc1ccc2c(/C=C/c3ccccn3)n[nH]c2c1 | 1
O=C(NCCc1cccc(F)c1)c1ccccc1Sc1ccc2c(/C=C/c3ccccn3)n[nH]c2c1 | 4
COc1cc(CNC(=O)c2ccccc2Sc2ccc3c(/C=C/c4ccccn4)n[nH]c3c2)cc(OC)c1 | 37
CCCCOCCCNC(=O)c1ccccc1Sc1ccc2c(/C=C/c3ccccn3)n[nH]c2c1 | −12

Structure (SMILES) | % inhibition [%]
O=C(NCCCCCCO)c1ccccc1Sc1ccc2c(/C=C/c3ccccn3)n[nH]c2c1 | −20
CC(C)=CCC/C(C)=C/CNC(=O)c1ccccc1Sc1ccc2c(/C=C/c3ccccn3)n[nH]c2c1 | −22
O=C(NC1Cc2ccccc2C1)c1ccccc1Sc1ccc2c(/C=C/c3ccccn3)n[nH]c2c1 | 7
O=C(Nc1cc(Cl)cc(Cl)c1)c1ccccc1Sc1ccc2c(/C=C/c3ccccn3)n[nH]c2c1 | −22
CC(C)c1ccc(NC(=O)c2ccccc2Sc2ccc3c(/C=C/c4ccccn4)n[nH]c3c2)cc1 | −12
O=C(NCc1ccc(F)c(F)c1)c1ccccc1Sc1ccc2c(/C=C/c3ccccn3)n[nH]c2c1 | 0
Cc1ccc(CNC(=O)c2ccccc2Sc2ccc3c(/C=C/c4ccccn4)n[nH]c3c2)cc1C | −6
Cc1cccc(CNC(=O)c2ccccc2Sc2ccc3c(/C=C/c4ccccn4)n[nH]c3c2)c1C | 13
Cc1ccc(CCNC(=O)c2ccccc2Sc2ccc3c(/C=C/c4ccccn4)n[nH]c3c2)cc1 | −1
CCc1ccc(CCNC(=O)c2ccccc2Sc2ccc3c(/C=C/c4ccccn4)n[nH]c3c2)cc1 | −11
O=C(NCc1ccc(F)cc1F)c1ccccc1Sc1ccc2c(/C=C/c3ccccn3)n[nH]c2c1 | 11
O=C(NCc1cc(F)ccc1F)c1ccccc1Sc1ccc2c(/C=C/c3ccccn3)n[nH]c2c1 | 15
O=C(NCCc1ccc(F)cc1)c1ccccc1Sc1ccc2c(/C=C/c3ccccn3)n[nH]c2c1 | 3
CC(NC(=O)c1ccccc1Sc1ccc2c(/C=C/c3ccccn3)n[nH]c2c1)c1ccc(F)cc1 (stereo not shown) | 2
CC(NC(=O)c1ccccc1Sc1ccc2c(/C=C/c3ccccn3)n[nH]c2c1)c1ccc(Cl)cc1 (stereo not shown) | 14
O=C(Nc1ccccn1)c1ccccc1Sc1ccc2c(/C=C/c3ccccn3)n[nH]c2c1 | −31
O=C(Nc1cccnc1)c1ccccc1Sc1ccc2c(/C=C/c3ccccn3)n[nH]c2c1 | −2
Cc1oc(NC(=O)c2ccccc2Sc2ccc3c(/C=C/c4ccccn4)n[nH]c3c2)c(C#N)c1C | 13
Cc1cc(C)nc(NC(=O)c2ccccc2Sc2ccc3c(/C=C/c4ccccn4)n[nH]c3c2)c1 | 3
O=C(Nc1ccncc1)c1ccccc1Sc1ccc2c(/C=C/c3ccccn3)n[nH]c2c1 | 6
COC(=O)c1sccc1NC(=O)c1ccccc1Sc1ccc2c(/C=C/c3ccccn3)n[nH]c2c1 | 2
COC(=O)c1ccc(NC(=O)c2ccccc2Sc2ccc3c(/C=C/c4ccccn4)n[nH]c3c2)cc1 | −1

Structure (SMILES) | % inhibition [%]
COC(=O)c1ccccc1NC(=O)c1ccccc1Sc1ccc2c(/C=C/c3ccccn3)n[nH]c2c1 | 3
O=C(NC1CCOC1=O)c1ccccc1Sc1ccc2c(/C=C/c3ccccn3)n[nH]c2c1 (stereo not shown) | 3
O=C(Nc1ccccc1CO)c1ccccc1Sc1ccc2c(/C=C/c3ccccn3)n[nH]c2c1 | 0
CN(C)c1ccc(NC(=O)c2ccccc2Sc2ccc3c(/C=C/c4ccccn4)n[nH]c3c2)cc1 | 18
NC(=O)c1ccccc1NC(=O)c1ccccc1Sc1ccc2c(/C=C/c3ccccn3)n[nH]c2c1 | 7
O=C(Nc1cccc(O)c1)c1ccccc1Sc1ccc2c(/C=C/c3ccccn3)n[nH]c2c1 | −6
NC(=O)c1ccc(NC(=O)c2ccccc2Sc2ccc3c(/C=C/c4ccccn4)n[nH]c3c2)cc1 | 2
O=C(Nc1cccc(CO)c1)c1ccccc1Sc1ccc2c(/C=C/c3ccccn3)n[nH]c2c1 | 14
O=C(Nc1ccc(CCO)cc1)c1ccccc1Sc1ccc2c(/C=C/c3ccccn3)n[nH]c2c1 | 10
COc1ccc(NC(=O)c2ccccc2Sc2ccc3c(/C=C/c4ccccn4)n[nH]c3c2)cn1 | −20
O=C(Nc1ccncn1)c1ccccc1Sc1ccc2c(/C=C/c3ccccn3)n[nH]c2c1 | −10
NC(=O)c1cccc(NC(=O)c2ccccc2Sc2ccc3c(/C=C/c4ccccn4)n[nH]c3c2)c1 | 4
O=C(Nc1ccccc1CCO)c1ccccc1Sc1ccc2c(/C=C/c3ccccn3)n[nH]c2c1 | 10
CC(=O)c1ccccc1NC(=O)c1ccccc1Sc1ccc2c(/C=C/c3ccccn3)n[nH]c2c1 | −7
COc1ccc(CCNC(=O)c2ccccc2Sc2ccc3c(/C=C/c4ccccn4)n[nH]c3c2)cc1OC | −3
O=C(NCc1ccc(Cl)cc1)c1ccccc1Sc1ccc2c(/C=C/c3ccccn3)n[nH]c2c1 | 4
COc1cccc(CCNC(=O)c2ccccc2Sc2ccc3c(/C=C/c4ccccn4)n[nH]c3c2)c1 | 8
COc1cccc(CNC(=O)c2ccccc2Sc2ccc3c(/C=C/c4ccccn4)n[nH]c3c2)c1OC | 10
COc1ccc(CNC(=O)c2ccccc2Sc2ccc3c(/C=C/c4ccccn4)n[nH]c3c2)cc1OC | 7
CCOc1ccccc1CNC(=O)c1ccccc1Sc1ccc2c(/C=C/c3ccccn3)n[nH]c2c1 | −9
Nc1ccccc1CNC(=O)c1ccccc1Sc1ccc2c(/C=C/c3ccccn3)n[nH]c2c1 | 46
O=C(NCCc1ccccc1F)c1ccccc1Sc1ccc2c(/C=C/c3ccccn3)n[nH]c2c1 | 2

Structure (SMILES) | % inhibition [%]
O=C(NCc1cccs1)c1ccccc1Sc1ccc2c(/C=C/c3ccccn3)n[nH]c2c1 | 23
Nc1cccc(F)c1CNC(=O)c1ccccc1Sc1ccc2c(/C=C/c3ccccn3)n[nH]c2c1 | 11
COc1cccc(OC)c1CNC(=O)c1ccccc1Sc1ccc2c(/C=C/c3ccccn3)n[nH]c2c1 | −10
CC(=O)Nc1ccc(NC(=O)c2ccccc2Sc2ccc3c(/C=C/c4ccccn4)n[nH]c3c2)cc1 | −4
O=C(NCc1ccccc1Cl)c1ccccc1Sc1ccc2c(/C=C/c3ccccn3)n[nH]c2c1 | 7
O=C(NCCc1ccccc1Cl)c1ccccc1Sc1ccc2c(/C=C/c3ccccn3)n[nH]c2c1 | 9
COc1ccccc1CCNC(=O)c1ccccc1Sc1ccc2c(/C=C/c3ccccn3)n[nH]c2c1 | 10
O=C(Nc1ccc2[nH]c(=O)[nH]c2c1)c1ccccc1Sc1ccc2c(/C=C/c3ccccn3)n[nH]c2c1 | 15
O=C(Nc1ccc(CO)cc1)c1ccccc1Sc1ccc2c(/C=C/c3ccccn3)n[nH]c2c1 | −18
O=C(NCCCCCO)c1ccccc1Sc1ccc2c(/C=C/c3ccccn3)n[nH]c2c1 | −2
O=C(NCc1cccc2ccccc12)c1ccccc1Sc1ccc2c(/C=C/c3ccccn3)n[nH]c2c1 | 5
Cc1cccc2sc(NC(=O)c3ccccc3Sc3ccc4c(/C=C/c5ccccn5)n[nH]c4c3)nc12 | −13
Cc1ccc2nc(NC(=O)c3ccccc3Sc3ccc4c(/C=C/c5ccccn5)n[nH]c4c3)sc2c1 | −9
CC(=O)c1sc(NC(=O)c2ccccc2Sc2ccc3c(/C=C/c4ccccn4)n[nH]c3c2)nc1C | −2
CC(C)(C)c1csc(NC(=O)c2ccccc2Sc2ccc3c(/C=C/c4ccccn4)n[nH]c3c2)n1 | −6
CCSc1nnc(NC(=O)c2ccccc2Sc2ccc3c(/C=C/c4ccccn4)n[nH]c3c2)s1 | 17
Cc1cc(NC(=O)c2ccccc2Sc2ccc3c(/C=C/c4ccccn4)n[nH]c3c2)sn1 | 19
O=C(N[C@H]1CC[C@H](O)CC1)c1ccccc1Sc1ccc2c(/C=C/c3ccccn3)n[nH]c2c1 | 18
CCOC(=O)N1CCC(NC(=O)c2ccccc2Sc2ccc3c(/C=C/c4ccccn4)n[nH]c3c2)CC1 | −24
